From BindingDB's records for doi:10.1016/s0960-894x(98)00290-x (3-Dimensional Pharmaceuticals, 1999)

Key:
[1] = Compound was tested in vitro for its ability to inhibit serine protease trypsin using benzoyl-Phe-Val-Arg-p-nitroanilide as substrate
[2] = Compound was tested in vitro for its ability to inhibit serine protease chymotrypsin using suc-Ala-Ala-Pro-Phe-p-nitroanilide as substrate

Ki [1]: 23 µM
Ki [2]: > 200 µM
SMILES: Cc1cc(OCCCNC(=N)N)cc(OS(=O)(=O)c2ccccc2Cl)c1 [2-Chloro-benzenesulfonic acid 3-(3-guanidino-propoxy)-5-methyl-phenyl ester]
